Laboratory results published in US6518262B1, “22R-hydroxycholesta-8, 14-diene derivatives for the inhibition of meiosis” (Akzo Nobel N.V., priority 1999, dated 2003).

Tested on: cumulus enclosed oocytes (CEO)
Assay: Oocyte assay, antagonistic testing, inhibition of 22S-hydroxy-FF-Mas induced maturation in cumulus enclosed oocytes (CEO assay)
Type: cell-based, mice (B6D2-F1, strain C57BL×DBA)
Details: 22S-hydroxy-FF-Mas 5 μM, control (22S-hydroxy-FF-Mas alone) in brackets
Experimental: The meiosis inhibiting activity of the 22R-hydroxycholesta-8,14-diene derivatives of the invention is measured in an in vitro oocyte assay as the ability to inhibit the FF-Mas or 22S-hydroxy-FF-Mas induced maturation, in hypoxanthine media, in denuded oocytes (DO) or cumulus enclosed oocytes (CEO), respectively. Natural resumption of meiosis can be mimicked in vitro by addition of FF-Mas or other agonists to the culture medium containing hypoxanthine. The antagonistic activity of the compounds is measured as the ability to inhibit the FF-Mas or 22S-hydroxy-FF-Mas induced oocyte maturation in denuded oocytes or cumulus enclosed oocytes, respectively, in vitro. Ovaries are obtained from immature female mice (B6D2-F1, strain C57BL×DBA). At the age of 19, 20 or 21 days the mice are injected subcutaneously with a single dose of 20 IU follicle stimulating hormone (Humegon, Organon, The Netherlands) in saline. Forty-eight hours after follicle stimulating hormone injection mice are killed by cervical dislocation. The ovaries are removed, freed of extraneous tissue and placed in a multidish containing 0.5 ml preparation medium at 37° C. L-15 Leibovitz medium (Gibco, pH 7.3±0.1) supplemented with bovine serum albumin (3 mg·ml^−1), L-glutamine (0.23 mM), sodium pyruvate (2 mM) and hypoxanthine (4 mM) is used as preparation medium. The antral follicles of the ovaries are punctured under a dissecting microscope using two 27-gauge needles attached to two 1 ml syringes. […] At t=0 the number of oocytes with intact germinal vesicles (GV) or germinal vesicle break-down (GVBD) is counted under an inverted microscope with differential interference contrast equipment. […] At the end of the culture period the number of oocytes with GV or GVBD per group is counted. For statistical analysis the percentage germinal vesicle breakdown is calculated for each group in one block. These percentages are subjected to arcsin transformation, and differences between control and test compounds are analyzed by an ANOVA test for a randomized block design. […]

Structure (SMILES) | % GVBD CEO assay exp. (compound tested 5 M) | % GVBD CEO assay exp.
CC(C)CC[C@@H](O)[C@@H](C)[C@H]1CC=C2C3=C(CC[C@@]21C)[C@@]1(C)CC[C@H](O)C(C)(C)[C@@H]1CC3 [Example 1, (3β,5α,20S,22R)-4,4-Dimethylcholesta-8,14-diene-3,22-diol] | 10(93)^3% | 
CC(C)=CC[C@@H](O)[C@@H](C)[C@H]1CC=C2C3=C(CC[C@@]21C)[C@@]1(C)CC[C@H](O)C(C)(C)[C@@H]1CC3 [Example 2, (3β,5α,20S,22R)-4,4-Dimethylcholesta-8,14,24-triene-3,22-diol] |  | 0(84)^4%
